# Laboratory results taken from patent publication US11440899B2, “Pyrimidine TBK/IKKe inhibitor compounds and uses thereof” (Merck Patent GmbH, priority 2017, dated 2022).
# pIC50: −log10 of the molar value.
# Legend:
# TBK1 = TBK1 (Homo sapiens (Human), UniProt Q9UHD2); assay: TBK Biochemical Assay
# Outline: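 Enzyme and substrate with compound (10-point 1:4 series, top 30 uM final, 1% DMSO) incubated 90 min at 25 °C, then stopped; substrate/product separated and read by LabChip mobility-shift, staurosporine 10 uM final as full-inhibition control.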
# IKKe = IKKe (Homo sapiens (Human), UniProt Q14164); assay: IKKe Biochemical Assay
# Chain of IKKe (Q14164 whole entry, species assumed): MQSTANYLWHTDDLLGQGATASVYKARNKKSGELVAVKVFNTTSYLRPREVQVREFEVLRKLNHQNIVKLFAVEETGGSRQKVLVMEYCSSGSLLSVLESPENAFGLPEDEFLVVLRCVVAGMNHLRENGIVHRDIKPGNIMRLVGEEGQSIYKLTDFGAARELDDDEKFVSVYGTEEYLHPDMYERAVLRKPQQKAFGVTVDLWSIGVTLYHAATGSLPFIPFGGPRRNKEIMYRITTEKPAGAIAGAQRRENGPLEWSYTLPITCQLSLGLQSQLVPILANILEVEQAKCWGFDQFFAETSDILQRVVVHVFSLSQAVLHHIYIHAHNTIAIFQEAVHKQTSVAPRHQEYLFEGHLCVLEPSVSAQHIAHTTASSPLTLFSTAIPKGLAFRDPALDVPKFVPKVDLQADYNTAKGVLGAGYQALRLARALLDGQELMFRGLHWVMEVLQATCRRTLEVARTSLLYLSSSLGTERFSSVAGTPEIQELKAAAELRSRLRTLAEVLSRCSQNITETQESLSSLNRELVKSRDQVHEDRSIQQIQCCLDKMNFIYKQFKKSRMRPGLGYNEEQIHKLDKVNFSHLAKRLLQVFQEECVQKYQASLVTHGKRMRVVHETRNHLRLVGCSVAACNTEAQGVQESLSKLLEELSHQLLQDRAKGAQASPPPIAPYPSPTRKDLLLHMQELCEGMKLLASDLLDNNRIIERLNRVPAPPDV
# Outline: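 Human IKKε activity was measured with compounds in a 10-point 1:4 dilution series, top concentration 30 uM final, in 1% DMSO final; 10 uM staurosporine served as the control. Enzyme and substrate were incubated 90 min at 25° C, then stopped, and substrate/product peaks were separated by microfluidic mobility-shift on a LabChip EZ Reader II.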
# Chain of TBK1 (Q9UHD2 whole entry, species assumed): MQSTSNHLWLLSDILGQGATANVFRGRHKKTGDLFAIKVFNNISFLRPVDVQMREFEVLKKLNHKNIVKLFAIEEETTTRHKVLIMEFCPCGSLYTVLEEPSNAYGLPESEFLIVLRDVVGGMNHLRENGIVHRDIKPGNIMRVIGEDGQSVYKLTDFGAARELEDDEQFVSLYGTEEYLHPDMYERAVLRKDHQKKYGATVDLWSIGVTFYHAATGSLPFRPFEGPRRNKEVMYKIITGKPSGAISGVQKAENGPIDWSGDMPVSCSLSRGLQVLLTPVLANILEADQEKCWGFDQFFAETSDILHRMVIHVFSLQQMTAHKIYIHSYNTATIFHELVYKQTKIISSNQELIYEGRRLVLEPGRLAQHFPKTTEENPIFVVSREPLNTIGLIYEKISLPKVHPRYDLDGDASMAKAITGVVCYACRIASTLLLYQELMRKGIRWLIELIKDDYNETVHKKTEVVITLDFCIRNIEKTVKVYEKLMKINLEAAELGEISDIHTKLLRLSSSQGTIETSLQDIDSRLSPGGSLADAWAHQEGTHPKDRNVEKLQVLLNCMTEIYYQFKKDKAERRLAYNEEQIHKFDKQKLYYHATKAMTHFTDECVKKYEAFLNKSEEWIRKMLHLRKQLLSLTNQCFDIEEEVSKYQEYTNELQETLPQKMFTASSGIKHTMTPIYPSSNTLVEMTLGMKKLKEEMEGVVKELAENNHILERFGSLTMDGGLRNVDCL
smiles,measurement,setting,value
"COc1nc(Nc2cc(-c3ccc(O[C@H]4CCN(C(=O)[C@H](C)O)CC4(F)F)c(C#N)c3)ncn2)ccc1N1CCN(C2COC2)CC1 [Example 91, 2-[[(4S)-3,3-difluoro-1-[(2S)-2-hydroxypropanoyl]piperidin-4-yl]oxy]-5-[6-([6-methoxy-5-[4-(oxetan-3-yl)piperazin-1-yl]pyridin-2-yl]amino)pyrimidin-4-yl]benzonitrile]",pIC50,TBK1,> 7.00
same,pIC50,IKKe,> 7.00
"COc1nc(Nc2cc(-c3ccc(O[C@@H]4CCN(C(=O)[C@H](C)O)CC4(F)F)c(C#N)c3)ncn2)ccc1N1CCN(C2COC2)CC1 [Example 92, 2-[[(4R)-3,3-difluoro-1-[(2S)-2-hydroxypropanoyl]piperidin-4-yl]oxy]-5-[6-([6-methoxy-5-[4-(oxetan-3-yl)piperazin-1-yl]pyridin-2-yl]amino)pyrimidin-4-yl]benzonitrile]",pIC50,TBK1,> 7.00
same,pIC50,IKKe,> 7.00
"COc1nc(Nc2cc(-c3ccc(O[C@H]4CCN(C(=O)[C@H](C)O)CC4(F)F)c(C#N)c3)ncn2)ccc1C1CCN(C2COC2)CC1 [Example 93, 2-[[(4S)-3,3-difluoro-1-[(2S)-2-hydroxypropanoyl]piperidin-4-yl]oxy]-5-[6-([6-methoxy-5-[1-(oxetan-3-yl)piperidin-4-yl]pyridin-2-yl]amino)pyrimidin-4-yl]benzonitrile]",pIC50,TBK1,> 7.00
same,pIC50,IKKe,> 7.00
"COc1nc(Nc2cc(-c3ccc(O[C@@H]4CCN(C(=O)[C@H](C)O)CC4(F)F)c(C#N)c3)ncn2)ccc1C1CCN(C2COC2)CC1 [Example 94, 2-[[(4R)-3,3-difluoro-1-[(2S)-2-hydroxypropanoyl]piperidin-4-yl]oxy]-5-[6-([6-methoxy-5-[1-(oxetan-3-yl)piperidin-4-yl]pyridin-2-yl]amino)pyrimidin-4-yl]benzonitrile]",pIC50,TBK1,> 7.00
same,pIC50,IKKe,> 7.00
"COc1nc(Nc2cc(-c3ccc(O[C@H]4CCN(C(=O)[C@@H](C)O)CC4(F)F)c(C#N)c3)ncn2)ccc1N1CCN(C2COC2)CC1 [Example 95, 2-[[(4S)-3,3-difluoro-1-[(2R)-2-hydroxypropanoyl]piperidin-4-yl]oxy]-5-[6-([6-methoxy-5-[4-(oxetan-3-yl)piperazin-1-yl]pyridin-2-yl]amino)pyrimidin-4-yl]benzonitrile]",pIC50,TBK1,> 7.00
same,pIC50,IKKe,> 7.00
"COc1nc(Nc2cc(-c3ccc(OC4CCN(C(=O)[C@@H](C)O)CC4(F)F)c(C#N)c3)ncn2)ccc1C1CCN(C2COC2)CC1 (stereo partly drawn) [Example 97, 2-([3,3-difluoro-1-[(2R)-2-hydroxypropanoyl]piperidin-4-yl]oxy)-5-[6-([6-methoxy-5-[1-(oxetan-3-yl)piperidin-4-yl]pyridin-2-yl]amino)pyrimidin-4-yl]benzonitrile]",pIC50,TBK1,> 7.00
same,pIC50,IKKe,> 7.00
"COc1nc(Nc2cc(-c3ccc(O[C@@H]4CCN(C(=O)[C@@H](C)O)CC4(F)F)c(C#N)c3)ncn2)ccc1N1CCN(C2COC2)C[C@@H]1C [Example 98, 2-((R)-3,3-difluoro-1-((R)-2-hydroxypropanoyl)piperidin-4-yloxy)-5-(6-(6-methoxy-5-((S)-2-methyl-4-(oxetan-3-yl)piperazin-1-yl)pyridin-2-ylamino)pyrimidin-4-yl)benzonitrile]",pIC50,TBK1,> 7.00
same,pIC50,IKKe,> 7.00
"COc1nc(Nc2cc(-c3ccc(O[C@H]4CCN(C(=O)[C@@H](C)O)CC4(F)F)c(C#N)c3)ncn2)ccc1N1CCN(C2COC2)C[C@@H]1C [Example 99, 2-((S)-3,3-difluoro-1-((R)-2-hydroxypropanoyl)piperidin-4-yloxy)-5-(6-(6-methoxy-5-((S)-2-methyl-4-(oxetan-3-yl)piperazin-1-yl)pyridin-2-ylamino)pyrimidin-4-yl)benzonitrile]",pIC50,TBK1,> 7.00
same,pIC50,IKKe,> 7.00
"COc1nc(Nc2cc(-c3ccc(OC4CCOCC4)c(C#N)c3)ncn2)ccc1N1CCN(C2COC2)CC1 [Example 100, 5-[6-({6-methoxy-5-[4-(oxetan-3-yl)piperazin-1-yl]pyridin-2-yl}amino)pyrimidin-4-yl]-2-(oxan-4-yloxy)benzonitrile]",pIC50,TBK1,> 7.00
same,pIC50,IKKe,> 7.00
"COc1nc(Nc2cc(-c3ccc(O[C@H]4CCN(C(=O)[C@H](C)O)CC4(F)F)c(C#N)c3)ncn2)ccc1N1CCN(C2COC2)C[C@@H]1C [Example 101, 2-[[(4S)-3,3-difluoro-1-[(2S)-2-hydroxypropanoyl]piperidin-4-yl]oxy]-5-[6-([6-methoxy-5-[(2S)-2-methyl-4-(oxetan-3-yl)piperazin-1-yl]pyridin-2-yl]amino)pyrimidin-4-yl]benzonitrile]",pIC50,TBK1,> 7.00
same,pIC50,IKKe,> 7.00
"COc1nc(Nc2cc(-c3ccc(O[C@@H]4CCN(C(=O)[C@H](C)O)CC4(F)F)c(C#N)c3)ncn2)ccc1N1CCN(C2COC2)C[C@@H]1C [Example 102, 2-[[(4R)-3,3-difluoro-1-[(2S)-2-hydroxypropanoyl]piperidin-4-yl]oxy]-5-[6-([6-methoxy-5-[(2S)-2-methyl-4-(oxetan-3-yl)piperazin-1-yl]pyridin-2-yl]amino)pyrimidin-4-yl]benzonitrile]",pIC50,TBK1,> 7.00
same,pIC50,IKKe,> 7.00
"COc1nc(Nc2cc(-c3ccc(O[C@H]4CCN(C(=O)[C@H](C)O)CC4(F)F)c(C#N)c3)ncn2)ccc1N1CCN(C2COC2)C[C@H]1C [Example 103, 2-[[(4S)-3,3-difluoro-1-[(2S)-2-hydroxypropanoyl]piperidin-4-yl]oxy]-5-[6-([6-methoxy-5-[(2R)-2-methyl-4-(oxetan-3-yl)piperazin-1-yl]pyridin-2-yl]amino)pyrimidin-4-yl]benzonitrile]",pIC50,TBK1,> 7.00
same,pIC50,IKKe,> 7.00
"COc1nc(Nc2cc(-c3ccc(O[C@@H]4CCN(C(=O)[C@H](C)O)CC4(F)F)c(C#N)c3)ncn2)ccc1N1CCN(C2COC2)C[C@H]1C [Example 104, 2-[[(4R)-3,3-difluoro-1-[(2S)-2-hydroxypropanoyl]piperidin-4-yl]oxy]-5-[6-([6-methoxy-5-[(2R)-2-methyl-4-(oxetan-3-yl)piperazin-1-yl]pyridin-2-yl]amino)pyrimidin-4-yl]benzonitrile]",pIC50,TBK1,> 7.00
same,pIC50,IKKe,> 7.00
"COc1nc(Nc2cc(-c3ccc(OC4CCN(C(=O)[C@H](C)O)CC4)c(C#N)c3)ncn2)ccc1C(=O)N(C)C [Example 105, 6-([6-[3-cyano-4-([1-[(2S)-2-hydroxypropanoyl]piperidin-4-yl]oxy)phenyl]pyrimidin-4-yl]amino)-2-methoxy-N,N-dimethylpyridine-3-carboxamide]",pIC50,TBK1,> 7.00
same,pIC50,IKKe,> 7.00
